# Tests used:
# Hippocampal Cells = test: Neurite Cell Outgrowth Assay, hippocampal cells; type: cell-based; settings: Rattus norvegicus; 50 nM; percent change over the vehicle response; NA = no change/not active
# Procedure, shortened: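 Rat E18 hippocampal or cortical neurons plated at 30,000 cells/well, treated 24 h after plating with compound at 50 nM, refreshed on day 3. At one week, fixed and MAP-2 immunostained with FITC secondary, read by fluorescence; outgrowth given as percent change versus vehicle.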
# [1] = tested on: human skin transplanted to the SCID mouse; test: Sebum production: Human Skin-SCID Mouse Chimera Model; type: in vivo; settings: for % Inh Squalene (Human Sebaceous Lipids) / % Inh Triglycerides (Human Sebaceous Lipids) / % Inh W/E (Human Sebaceous Lipids): 11 Day Treatment; for % Inh Cholesterol Ester, Lipid Accumulation / % Inh Cholesterol, Lipid Accumulation / % Inh Cholesterol, Sebaceous Lipid Synthesis / % Inh Squaline, Lipid Accumulation / % Inh Squaline, Sebaceous Lipid Synthesis / % Inh Triglycerides, Lipid Accumulation / % Inh Triglycerides, Sebaceous Lipid Synthesis / % Inh Wax Esters, Lipid Accumulation / % Inh Wax Esters, Sebaceous Lipid Synthesis: 30 Day Treatment
# Text: C.B-17 scid/scid mice (Taconic, Germantown, N.Y.) were used for grafting at 5–6 weeks of age. Full thickness human facial skin was shaved to ˜0.4 mm using a Forman Dermatome. The skin shavings were washed 3 times in antibiotics and antimycotics (penicillin, streptomycin, fungizone) (Life technologies) in Dulbecco's Modified Eagle Medium (DMEM, Life Technologies). Eliptical skin ˜2.0–2.5×1.0–1.5 was grafted onto the prepared graft bed and sutured using 4.0 silk. During surgical procedures the mice were anaesthetized using a mixture of Ketaset (0.16 mg/g body weight) and Rompun (8.0 μg/g body weight).
# It is well accepted that the wound healing process of the transplanted skin in the SCID mouse takes one month, at which time the human skin can be used for experimental purposes. […] Maximum size of the glands was observed 3 month post transplantation. The glands retained their capability to produce human specific sebum and the glandular tissue expressed human specific markers including MC5-R. Since glands reached their maximum size at 2–3 month post transplantation the effects of inhibitors of sebum secretion was tested at this point.
# Mice at 2–3 month post transplantation with human facial skin were used for the studies. The graft area was treated with the test compound at the desired concentration(s) dissolved in polyethylene glycol-ethanol (20 μl/2 cm^2). Controls were treated with vehicle alone. The test compounds were applied daily, excluding weekends. Sebum secretion was determined using Sebutape at 15 days and 30 days following treatment.
# The termination of the experiment was determined by preliminary clinical evaluation of sebum production using SEBUTAPE. At this time human skin grafts were excised and representative samples were collected for histological evaluation. More particularly, 2 mm punch biopsies were prepared and used for evaluation of lipid synthesis and total lipid accumulation in the treated tissues.
# The collected—2 mm punch biopsies were placed individually into 96 well plates in Krebs buffer and labeled with 10 μCi of ^14C acetate for 3 hours. Following this labeling period the samples were washed in medium and 5 biopsies pooled, weighed, and used for lipid extraction. The lipid extraction and analysis by HPTLC was the same as described for tissue culture derived cells. […]
# human sebocytes = test: cells; type: cell-based; settings: read-out: % Inh Unknown lipid synthesis
# [2] = target: T1, melanocortin MC-4 receptor (Homo sapiens, UniProt P32245); test: MC-4 receptor binding (Filtration); settings: cell prints its own unit nm in the Filtration (μM) column; read-out: IC50 MC-4 (Filtration)
# T1 construct: purchased Receptor Biology Inc
# Description: The procedures described above for the melanocortin MC-4 receptor were repeated for the melanocortin MC-3 receptor. Following the procedures described, representative compounds of the present invention were tested for binding in the MC-4 and/or MC-3 assay, as listed in Table 4.
# [3] = 30 days of topical treatment with 0.05% and 0.01% solution
# T1 sequence (P32245 whole entry): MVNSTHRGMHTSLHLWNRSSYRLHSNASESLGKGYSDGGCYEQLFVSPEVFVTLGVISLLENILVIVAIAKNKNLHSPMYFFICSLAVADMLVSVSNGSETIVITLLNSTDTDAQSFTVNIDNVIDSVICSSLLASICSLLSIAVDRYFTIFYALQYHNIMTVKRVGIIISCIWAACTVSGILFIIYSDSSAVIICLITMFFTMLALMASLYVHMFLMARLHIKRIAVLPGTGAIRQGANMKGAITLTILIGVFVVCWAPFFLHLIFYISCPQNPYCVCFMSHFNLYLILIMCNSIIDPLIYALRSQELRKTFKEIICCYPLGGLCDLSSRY
compound,measurement,setting,value
COc1ccc(N(C)c2nc(-c3ccccc3)[n+](-c3ccc(C)cc3)s2)cc1 [Compound 50],activation at 0.05 µM,Hippocampal Cells,46%
"COc1ccccc1-c1nc(Nc2ccccc2)s[n+]1-c1ccccc1OC.[Br-] [Compound 74, 2-(2-methoxyphenyl)-3-(2-methoxyphenyl)-5-phenylamino-[1,2.4]thiadiazol-2-ium]",% Inh Squalene (Human Sebaceous Lipids),[1]; 0.01% topical,0%
same,% Inh Triglycerides (Human Sebaceous Lipids),[1]; 0.01% topical,0%
same,% Inh W/E (Human Sebaceous Lipids),[1]; 0.01% topical,25%
same,"% Inh Cholesterol Ester, Lipid Accumulation",[1]; 0.01% topical,44%
same,"% Inh Cholesterol, Lipid Accumulation",[1]; 0.01% topical,33%
same,"% Inh Cholesterol, Sebaceous Lipid Synthesis",[1]; 0.01% topical,33%
same,"% Inh Squaline, Lipid Accumulation",[1]; 0.01% topical,82%
same,"% Inh Squaline, Sebaceous Lipid Synthesis",[1]; 0.01% topical,80%
same,"% Inh Triglycerides, Lipid Accumulation",[1]; 0.01% topical,75%
same,"% Inh Triglycerides, Sebaceous Lipid Synthesis",[1]; 0.01% topical,75%
same,"% Inh Wax Esters, Lipid Accumulation",[1]; 0.01% topical,86%
same,"% Inh Wax Esters, Sebaceous Lipid Synthesis",[1]; 0.01% topical,86%
same,"% Inh Cholesterol Ester, Lipid Accumulation",[1]; 0.05% topical,21%
same,"% Inh Cholesterol, Lipid Accumulation",[1]; 0.05% topical,82%
same,"% Inh Cholesterol, Sebaceous Lipid Synthesis",[1]; 0.05% topical,82%
same,"% Inh Squaline, Lipid Accumulation",[1]; 0.05% topical,73%
same,"% Inh Squaline, Sebaceous Lipid Synthesis",[1]; 0.05% topical,90%
same,"% Inh Triglycerides, Lipid Accumulation",[1]; 0.05% topical,90%
same,"% Inh Triglycerides, Sebaceous Lipid Synthesis",[1]; 0.05% topical,90%
same,"% Inh Wax Esters, Lipid Accumulation",[1]; 0.05% topical,93%
same,"% Inh Wax Esters, Sebaceous Lipid Synthesis",[1]; 0.05% topical,93%
same,% Inh Squalene (Human Sebaceous Lipids),[1]; 0.1% topical,70%
same,% Inh Triglycerides (Human Sebaceous Lipids),[1]; 0.1% topical,50%
same,% Inh W/E (Human Sebaceous Lipids),[1]; 0.1% topical,80%
same,% Inh Squalene (Human Sebaceous Lipids),[1]; 0.5% topical,0%
same,% Inh Triglycerides (Human Sebaceous Lipids),[1]; 0.5% topical,0%
same,% Inh W/E (Human Sebaceous Lipids),[1]; 0.5% topical,10%
same,de novo synthesis of sebaceous lipids,[1]; [3],significantly decreased
same,total sebaceous lipid accumulation,[1]; [3],significantly decreased
same,down regulation of sebaceous lipids,[1]; topical treatment for 15 days with 0.05% and 0.005% solutions,not sufficient to down regulate the lipids
same,Visual evaluation of the sebaceous gland,[1]; topical treatment with 0.1% solution,visible shrinkage of the sebaceous gland and down regulation of sebaceous lipids
same,inhibition at 0.4 µM,human sebocytes,75%
same,inhibition at 0.6 µM,human sebocytes,80%
c1ccc(CNc2nc(-c3ccccc3)[n+](-c3ccccc3)s2)cc1 [Compound 84],IC50,[2],0.082 µM
